In patent US20180155757A1, “IDENTIFICATION OF BACTERIA THAT ARE RESISTANT TO CARBAPENEMS BY MEMBRANE IMPERVIOUSNESS” (BIOMÉRIEUX, priority 2015, published 2018):
Read-outs that look alike come from different tables or passages of the source.

Tested on: carbapenem-resistant bacterial strains
Excerpt: For each strain tested, each PMBN concentration and each indicator carbapenem, the MIC measured is compared to that obtained in the absence of PMBN. In the light of the possible difference in MIC values, a prognosis for the mechanism of resistance developed by the strain tested is established by applying the following general premise: A decrease in MICIM/ETP in the presence of PMBN is an indication of carbapenem resistance by membrane impermeability. In any other case, another mechanism of resistance is implicated.
For the purposes of verifying the accuracy of the prognoses established and the relevance of the general premise mentioned above: • each strain was tested by Western blot with the view to detection of porins (in the case in point, of the OmpF and OmpC isoforms), and • for some of the strains tested, in particular those for which there remains a doubt as to the mechanism of resistance developed (prognosis established in contradiction with the results of the porin detection by Western blot), a test for detecting carbapenemases by means of the RAPIDEC® CARBA NP kit (bioMérieux, France) was also carried out.
As regards the results thus obtained, the characterization of the strains termed carbapenem resistant by membrane impermeability is established either by the absence of porins detected by Western blot, or by carbapenem resistance that is not linked to the presence of carbapenemase, verified by a molecular method (PCR) and/or by a phenotypic method (RAPIDEC® CARBA NP).
A second method of interpretation of the results compiled in table 3 is proposed here. The prognosis system is based on the following “refined” premise: A decrease in MICIM/ETP, in the presence of PMBN, by at least a factor of 4 (that is to say with a difference in MIC of 2 doubling dilutions), is the signal of carbapenem resistance by membrane impermeability. If not, another mechanism of resistance is implicated.

| SMILES | reliability of a negative prognosis with regard to resistance by membrane impermeability (general premise) [%] | reliability of a positive prognosis with regard to resistance by membrane impermeability (general premise) [%] | reliability of a negative prognosis with regard to resistance by membrane impermeability (refined premise) [%] | reliability of a positive prognosis with regard to resistance by membrane impermeability (refined premise) [%] |
| --- | --- | --- | --- | --- |
| C[C@@H](O)[C@H]1C(=O)N2C(C(=O)O)=C(SCCN=CN)C[C@H]12 [IM, imipenem] | 87 | 73 | 77 | 95 |
| C[C@@H](O)[C@H]1C(=O)N2C(C(=O)O)=C(S[C@@H]3CN[C@H](C(=O)Nc4cccc(C(=O)O)c4)C3)[C@H](C)[C@H]12 [ETP, ertapenem] | 90 | 66 | 85 | 86 |
